Measurements published in US9957261B2 (Hoffmann-La Roche Inc., priority 2014, dated 2018).

Columns and labels:
rat TAAR1 = rat TAAR1 (Rattus norvegicus (Rat), UniProt Q923Y9); assay: Radioligand binding assay on rat TAAR1; settings: rat TAAR1, membranes of stably transfected HEK-293 cells; second value of mouse/rat pair
In short: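 Competition binding with [3H]-(S)-4-[(ethyl-phenyl-amino)-methyl]-4,5-dihydro-oxazol-2-ylamine on membranes from HEK293 cells stably expressing rat TAAR1, in HEPES-NaOH pH 7.4. Compounds spanned 10 pM-10 μM in duplicate, incubated 1 h at 4 °C, with nonspecific binding set by 10 μM unlabeled ligand. Filtration followed by scintillation counting.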

mouse TAAR1 = mouse TAAR1 (Mus musculus (Mouse), UniProt Q923Y8); assay: Radioligand binding assay on mouse TAAR1; settings: mouse TAAR1, membranes of stably transfected HEK-293 cells; first value of mouse/rat pair
In short: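 Membranes from HEK293 cells stably expressing mouse TAAR1, in HEPES-NaOH pH 7.4; displacement of ³H-(S)-4-[(ethyl-phenyl-amino)-methyl]-4,5-dihydro-oxazol-2-ylamine, nonspecific binding with 10 μM unlabeled ligand.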

rat TAAR1, sequence (Q923Y9 whole entry): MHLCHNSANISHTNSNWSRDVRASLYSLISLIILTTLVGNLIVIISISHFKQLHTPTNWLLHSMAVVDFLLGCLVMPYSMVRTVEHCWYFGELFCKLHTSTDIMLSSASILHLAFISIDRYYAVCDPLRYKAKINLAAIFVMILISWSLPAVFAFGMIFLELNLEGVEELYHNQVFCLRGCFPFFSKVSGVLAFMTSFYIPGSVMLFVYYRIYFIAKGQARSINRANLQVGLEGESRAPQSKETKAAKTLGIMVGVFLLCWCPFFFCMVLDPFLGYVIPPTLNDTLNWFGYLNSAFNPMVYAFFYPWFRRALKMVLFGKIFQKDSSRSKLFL
mouse TAAR1, sequence (Q923Y8 whole entry): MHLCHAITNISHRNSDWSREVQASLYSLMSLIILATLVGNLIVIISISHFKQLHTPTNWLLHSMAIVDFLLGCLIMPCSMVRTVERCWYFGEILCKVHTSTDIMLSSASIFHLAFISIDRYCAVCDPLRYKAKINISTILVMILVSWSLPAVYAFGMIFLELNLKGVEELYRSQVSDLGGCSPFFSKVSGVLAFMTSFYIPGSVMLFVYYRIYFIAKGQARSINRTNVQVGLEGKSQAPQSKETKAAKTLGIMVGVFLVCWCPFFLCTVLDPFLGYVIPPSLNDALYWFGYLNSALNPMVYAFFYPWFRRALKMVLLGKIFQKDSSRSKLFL

Structure (SMILES) | Ki (rat TAAR1) | Ki (mouse TAAR1)
COc1cccc(NC(=O)Nc2ccc3c(c2)CC[C@H](N)C3)c1 [Example 67, (S)-1-(6-Amino-5,6,7,8-tetrahydronaphthalen-2-yl)-3-(3-methoxyphenyl)urea] | 0.0044 µM | 0.0075 µM
N[C@H]1CCc2cc(NC(=O)Nc3ccc(C(F)(F)F)nc3)ccc2C1 [Example 16, (S)-1-(6-Amino-5,6,7,8-tetrahydronaphthalen-2-yl)-3-(6-(trifluoromethyl)pyridin-3-yl)urea] | 0.0023 µM | 0.0045 µM
NC1CCc2cc(C(=O)Nc3ccc(F)cc3)ccc2C1 (stereo not shown) [Example 58, 6-Amino-N-(4-fluorophenyl)-5,6,7,8-tetrahydronaphthalene-2-carboxamide] | 0.0964 µM | 0.0569 µM
NC1CCc2cc(C(=O)NCc3ccc(C(F)(F)F)cc3)ccc2C1 (stereo not shown) [Example 35, 6-Amino-N-(4-(trifluoromethyl)benzyl)-5,6,7,8-tetrahydronaphthalene-2-carboxamide] | 0.035 µM | 0.0055 µM
CCCc1cc(C(=O)Nc2ccc3c(c2)OC[C@H](N)C3)nn1CC(F)F [Example 10, (R)—N-(3-Aminochroman-7-yl)-1-(2,2-difluoroethyl)-5-propyl-1H-pyrazole-3-carboxamide] | 0.0034 µM | 0.0111 µM

Further lines, results first:

Ki (rat TAAR1) | Ki (mouse TAAR1) | Structure (SMILES)
0.0758 µM | 0.0371 µM | N[C@H]1COc2cc(NC(=O)c3ncc(C(F)(F)F)cn3)ccc2C1 [Example 84, (R)—N-(3-Aminochroman-7-yl)-5-(trifluoromethyl)pyrimidine-2-carboxamide]
0.0061 µM | 0.0009 µM | Cn1nc(C(=O)Nc2ccc3c(c2)OC[C@H](N)C3)cc1-c1cccs1 [Example 85, (R)—N-(3-Aminochroman-7-yl)-1-methyl-5-(thiophen-2-yl)-1H-pyrazole-3-carboxamide]
0.0243 µM | 0.0088 µM | Cc1cc(C(=O)Nc2ccc3c(c2)OC[C@H](N)C3)cc(Cl)n1 [Example 89, (R)—N-(3-Aminochroman-7-yl)-2-chloro-6-methylisonicotinamide]
